Results reported in article PMC5522071, “Preclinical development of G1T38: A novel, potent and selective inhibitor of cyclin dependent kinases 4/6 for use as an oral antineoplastic in patients with CDK4/6 sensitive tumors” (Oncotarget, 2017).
Like-named read-outs stand apart in the source and are kept apart here. One block for each molecule: values may come before it.

Assays:
ER+ MCF7 xenograft = assay: MCF-7 breast cancer xenograft model; type: in vivo, mice; conditions: for tumor growth inhibition (TGI): after 27 days of treatment
Description: Tumors were measured every 3 to 4 days during treatment for up to 20 days post-treatment. […] South Texas Accelerated Research Therapeutics (START; San Antonio, Texas) evaluated the antitumor activity of G1T38 in a START Cell-Based Xenograft (START-CBX) tumor model, MCF-7, representing human breast cancer. Data collected from this efficacy study included animal weights, observations, and tumor dimensions. This information was used to determine agent tolerability based on weight change and gross physiologic changes, and anticancer activity based on tumor growth inhibition or regression. Study endpoint was Day 60. MCF-7 cells were harvested from culture and injected into immune-deficient mice and the study initiated at a mean tumor volume of approximately 150-250 mm^3. […] Tumor growth inhibition (%TGI) was calculated using the following equation: %TGI=(1-(((TVtmtfinal-TVtmtinitial))/((AVERAGE(TVctlfinal))-(AVERAGE(TVctlinital)))))*100.

H1975 xenograft = assay: H1975 NSCLC xenograft model; type: in vivo, mice
Description: To evaluate the efficacy of G1T38 in combination with EGFR inhibitors, the H1975 xenograft model was utilized. H1975 is a human NSCLC that harbors the […] mutations rendering resistance to erlotinib treatment.
Afatinib is an irreversible second generation pan-ErbB inhibitor developed as a first-line treatment of patients with metastatic NSCLC whose tumors harbor EGFR mutations or deletions as well as in patients with metastatic disease that progressed after platinum-based chemotherapy.
Female NCI Ath/nu mice were implanted with H1975 NSC lung adenocarcinoma model. Once tumors reached an average size of 100- 150 mm^3, mice were randomized into treatment cohorts. Mice were orally administered daily afatinib (20 mg/kg, Genentech/OSI), erlotinib (70 mg/kg, LC Labs), or G1T38 (50 or 100 mg/kg), as single agents or in combination (G1T38 + erlotinib or G1T38 + afatinib) for the duration of the study. Tumors were measured twice weekly until mice reached tumor burden of 1500 mm^3.

[1] = design: method as in earlier work; conditions: Dog; cited from earlier work
7-day continuous oral PK = conditions: C57BL/6, mouse, plasma
[2] = cited from earlier work
[3] = design: method as in earlier work; conditions: Mouse; cited from earlier work
neutrophils = assay: Peripheral blood analysis, 28 days daily oral dosing
[4] = design: method as in earlier work; conditions: Rat; cited from earlier work

SMILES: CC/C(=C(\c1ccccc1)c1ccc(/C=C/C(=O)O)cc1)c1ccccc1 [GW5638, reference compound]
TGI as single agents (GW5638 study) (ER+ MCF7 xenograft; G1T38 25 or 50 mg/kg alone, GW5638 25 mg/kg alone): modest TGI

SMILES: CN(C)C/C=C/C(=O)Nc1cc2c(Nc3ccc(F)c(Cl)c3)ncnc2cc1O[C@H]1CCOC1 [afatinib, reference compound]
time at which tumors began to regrow (H1975 xenograft; afatinib only cohort, 20 mg/kg): ≤ 14 days

SMILES: C#Cc1cccc(Nc2ncnc3cc(OCCOC)c(OCCOC)cc23)c1 [erlotinib, reference compound]
difference from vehicle treated mice (H1975 xenograft; 70 mg/kg daily): no significant difference

concentration at 24 h (7-day continuous oral PK): ~600 nM
decrease in neutrophils compared with G1T38 (neutrophils): similar
SMILES: CC(=O)c1c(C)c2cnc(Nc3ccc(N4CCNCC4)cn3)nc2n(C2CCCC2)c1=O [palbociclib]
T1/2 [1]: 20.7 h
T1/2 ([2]; Human): 29 h
half-life ([2]; in humans): > 24 h
T1/2 [3]: 2.5 to 4.2 h
tumor growth inhibition (TGI) (ER+ MCF7 xenograft; 10 mg/kg once daily oral): 18%
tumor growth inhibition (TGI) (ER+ MCF7 xenograft; 50 mg/kg once daily oral): 66%
time to tumor regression (ER+ MCF7 xenograft; 100 mg/kg daily oral): ≤ 10 days
tumor growth inhibition (TGI) (ER+ MCF7 xenograft; 100 mg/kg once daily oral): 87%
T1/2 [4]: 2.4 to 4.9 h
